From paper PMC10846240, “Pharmacokinetic/pharmacodynamic integration of amphenmulin: a novel pleuromutilin derivative against Mycoplasma gallisepticum” (Microbiology Spectrum, 2023)
Values after ≈ are worked out from the molar mass of the structure shown. Where two headings read alike, the source gives them in different places.

Key:
[1] = system: M. gallisepticum; assay: In vitro dynamic model (one-compartment, first-order elimination); assay type: cell-based, Mycoplasma gallisepticum
Description: According to previous reports ([21][–][23]), an in vitro model compatible with M. gallisepticum growth and amphenmulin pharmacokinetics was developed ([24]). It comprised a reservoir chamber containing fresh, drug-free medium; a reaction chamber with a three-necked flask where amphenmulin interacts with M. gallisepticum, containing 300 mL of medium in the outer chamber (external compartment, EC) and 10 mL of M. gallisepticum culture (10^7 CFU/mL) in a semipermeable membrane chamber (internal compartment, IC); and a waste chamber collecting effluent, which were connected via tubing and controlled by a peristaltic pump (Fig. 2). In this model, the flow rate was calculated as 1.63 mL/min from the reaction chamber volume and amphenmulin’s elimination half-life (T1/2Ke) after intravascular administration in chickens, enabling dynamic changes in drug concentrations that simulate amphenmulin elimination in chickens and its activity against M. gallisepticum. The in vitro elimination of amphenmulin followed first-order kinetics:
where C0 is the initial amphenmulin concentration, C is the amphenmulin concentration at time t, k is the elimination rate constant, and t is the time after dosing. […]
The determination of amphenmulin in the medium referenced our laboratory’s method for extracting tiamulin ([25]) and was also detected by the HPLC-MS/MS method mentioned in the PK section.

[2] = system: M. gallisepticum S6 strain; assay: Susceptibility assay, broth microdilution (MIC, MBC); assay type: cell-based, Mycoplasma gallisepticum
Description: The minimum inhibitory concentration (MIC) of amphenmulin against M. gallisepticum S6 strain was determined with reference to the protocols previously reported ([16], [17]). The broth microdilution method was performed using 96-well plates to achieve a final titer of approximately 10^7 colony-forming units (CFU)/mL of M. gallisepticum in each well. The final concentrations tested of amphenmulin ranged from 0.488 × 10^−3 to 0.125 µg/mL. Concurrently, a growth control (without drug), an end-point control (blank medium), and a sterile control (sterile broth) were also implemented. […] For the agar dilution method, M. gallisepticum was inoculated and cultured on agar plates containing a twofold dilution series of amphenmulin concentrations, and the MIC was the lowest drug concentration that inhibited growth. Additionally, following the procedure of broth microdilution, the initial culture before incubation and the samples from wells where the color remained unchanged after 48 h of incubation were subjected to 10-fold serial dilutions. Each dilution sample (10 µL) was then plated on drug-free agar for colony counting.

[3] = system: M. gallisepticum strain S6; assay: Static time-kill curves and Sigmoid Emax fit of kill rate; assay type: cell-based, Mycoplasma gallisepticum; settings: for EC50: Mycoplasmoides gallisepticum, read-out: EC50 (concentration at half-maximal kill rate); for decrease of mycoplasma counts / type of effect: static; for decrease of mycoplasma counts: within 48 h
Description: Based on the MIC value from broth microdilution method, 7 mL blank medium, 0.2 mL amphenmulin solution, and 0.8 mL M. gallisepticum suspension were taken into 10-mL Celine bottles to make the final mycoplasma count of 10^7 CFU/mL, as well as final concentrations of amphenmulin of 1, 2, 4, 6, 8, 16, 32, and 64 MIC, respectively. Growth control (without drug) and negative control (blank medium) were also set up for culture. Then at 0, 6, 9, 12, 24, 36, and 48 h, 100 µL of each culture was taken for counting using the aforementioned method, with a lower limit of 100 CFU/mL. The experiment was repeated three times.
The efficacy of amphenmulin against M. gallisepticum was measured by the kill rate per unit of time. Considering the growth of M. gallisepticum observed in preliminary experiments, this study selected seven time periods of 0–24, 0–36, 0–48, 6–24, 6–36, 6–48, and 12–48 h to calculate the kill rates of amphenmulin. The Sigmoid Emax model in Phoenix was used to fit the relationship between mean kill rate and drug concentration, which is shown below:
E, kill rate of amphenmulin against M. gallisepticum within a period; E0, change rate of M. gallisepticum in the control group (without drug); Emax, maximum kill rate within a period; Ce, concentration of amphenmulin; EC50, drug concentration at half-maximal kill rate; N, Hill coefficient, reflecting the slope of the kill rate–concentration curve.

[4] = design: method as in PMID 29722184, PMID 32079232; settings: cited from earlier work
[5] = system: methicillin-resistant Staphylococcus aureus (MRSA); settings: cited from earlier work
[6] = design: method as in PMID 32079232; settings: mice; cited from earlier work
[7] = system: M. gallisepticum; assay: PK/PD integration, inhibitory Sigmoid Emax model; assay type: cell-based, Mycoplasma gallisepticum; settings: for Emax: inhibitory Emax model
Description: Phoenix software was used to analyze the in vitro concentration–time data of amphenmulin and calculate the AUC and peak concentration (Cmax), which were combined with MIC to obtain PK/PD parameters. Concurrently, the anti-mycoplasma effect was derived from the dynamic time–kill curve, which was analyzed with the PK/PD index using an inhibitory Sigmoid Emax model as follows:
E=E0−(E0−Emax)×CeN/EC50N+CeN
E, anti-mycoplasma effect, the change in M. gallisepticum counts during 24 h of cultivation; E0, M. gallisepticum change in control (without drug); Emax, maximal effect produced by amphenmulin against M. gallisepticum during 24 h; Ce, PK/PD parameters (AUC/MIC or Cmax/MIC); EC50, the Ce value needed to produce 50% of maximal effect; N, Hill coefficient, the slope of the fitted curve.

Structure (SMILES): C=C[C@]1(C)C[C@@H](OC(=O)CSc2ccccc2N)[C@]2(C)[C@H](C)CC[C@]3(CCC(=O)[C@H]32)[C@@H](C)[C@@H]1O [amphenmulin, 22-(2-amino-phenylsulfanyl)-22-deoxypleuromutilin]
- mycoplasma numbers at the highest dose ([1]; counting limit): < 100 CFU/mL
- maximum decrease of M. gallisepticum counts within 0–72 h ([1]; doses of 0.1–0.5 μg/mL): ≤ 2.82 Log10CFU/mL
- MIC ([2]; Mycoplasmoides gallisepticum, S6STRAIN, broth microdilution, inoculum 10^7 CFU/mL, strain S6): 0.0039 µg/mL (≈ 0.00803 µM)
- MBC ([2]; Mycoplasmoides gallisepticum, S6STRAIN, inoculum 10^7 CFU/mL, reduction > 3 Log10CFU/mL after 48 h): 0.0156 µg/mL (≈ 0.0321 µM)
- MIC at inoculum levels of 107, 106, and 105 ([2]; early pre-experiments (response to reviewer)): no significant difference
- EC50 ([3]; S6, period 0–24 h): 0.0325 µg/mL (≈ 0.0669 µM)
- EC50 ([3]; S6, period 0–36 h): 0.0914 µg/mL (≈ 0.188 µM)
- EC50 ([3]; S6, period 0–48 h): 0.913 µg/mL (≈ 1.88 µM)
- EC50 ([3]; S6, period 6–24 h): 0.0082 µg/mL (≈ 0.0169 µM)
- EC50 ([3]; S6, period 6–36 h): 0.0053 µg/mL (≈ 0.0109 µM)
- EC50 ([3]; S6, period 6–48 h): 0.0526 µg/mL (≈ 0.108 µM)
- EC50 ([3]; S6, period 12–48 h): 0.524 µg/mL (≈ 1.08 µM)
- Emax (maximum kill rate) ([3]; period 0–24 h): 0.1261 h⁻¹
- Emax (maximum kill rate) ([3]; period 0–36 h): 0.1817 h⁻¹
- Emax (maximum kill rate) ([3]; period 0–48 h): 0.3277 h⁻¹
- Emax (maximum kill rate) ([3]; period 6–24 h): 0.0805 h⁻¹
- Emax (maximum kill rate) ([3]; period 6–36 h): 0.0821 h⁻¹
- Emax (maximum kill rate) ([3]; period 6–48 h): 0.1743 h⁻¹
- Emax (maximum kill rate) ([3]; period 12–48 h): 0.2880 h⁻¹
- decrease of mycoplasma counts ([3]; 1 MIC): 0.44 Log10CFU/mL
- type of effect ([3]; 2–32 MIC): bacteriostatic effect
- decrease of mycoplasma counts ([3]; 2–32 MIC): 0.57–2.7 Log10CFU/mL
- type of effect ([3]; 64 MIC): bactericidal effect
- decrease of mycoplasma counts ([3]; 64 MIC): 3.85 Log10CFU/mL
- acute toxicity [4]: practically non-toxic
- antibacterial activity against MRSA compared with tiamulin [5]: better antibacterial activity
- static kill curve against MRSA, character of effect [5]: more time-dependent tendency and bacteriostatic effects
- oral bioavailability [6]: 13.65%
- AUC24 h/MIC target value ([7]; for a decrease of 1 Log10CFU/mL of M. gallisepticum): 904.05 h
- Emax ([7]; index AUC24 h/MIC): −2.4214 Log10CFU/mL
- Emax ([7]; index Cmax/MIC): −3.3571 Log10CFU/mL
